Experiments:
Experiment in all cases: relative viability (nuclei count vs DMSO), 5 days (fraction); higher = more cells survive
BAM7 + Dasatinib = compound: CCOC1=CC=CC=C1N=NC2=C(NN(C2=O)C3=NC(=CS3)C4=CC=CC=C4)C [BAM7] + Cc1nc(Nc2ncc(C(=O)Nc3c(C)cccc3Cl)s2)cc(N2CCN(CCO)CC2)n1 [Dasatinib] (partner 0.075 µM)
Outline: (§1)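 For relative viability, nuclei counts in treated wells were divided by those in vehicle wells. Lung cancer cell lines had been pin-tool dosed in 1536-well plates the day after seeding and cultured for 5 days, then fixed and stained in one step (final 0.05% Triton X-100, 1% formaldehyde, 1 ug/ml Hoechst) and imaged at 4×. Doses were one drug alone or a fixed anchor-drug dose plus five library-drug doses (not always all listed) in √10 steps, and values are duplicate-plate medians.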

[1] = compound: CCn1c(-c2nonc2N)nc2c(C#CC(C)(C)O)ncc(OC[C@H]3CCCNC3)c21 + CC(=O)Nc1cccc(-n2c(=O)n(C3CC3)c(=O)c3c(Nc4ccc(I)cc4F)n(C)c(=O)c(C)c32)c1 [Trametinib] (partner 0.02 µM)
Outline: as §1

[2] = compound: CCn1c(-c2nonc2N)nc2c(C#CC(C)(C)O)ncc(OC[C@H]3CCCNC3)c21 + COc1cc2c(Oc3ccc(NC(=O)C4(C(=O)Nc5ccc(F)cc5)CC4)cc3F)ccnc2cc1OCCCN1CCOCC1 [Foretinib] (partner 0.25 µM)
Outline: as §1

[3] = compound: CCn1c(-c2nonc2N)nc2c(C#CC(C)(C)O)ncc(OC[C@H]3CCCNC3)c21 + CS(=O)(=O)N1CCN(Cc2cc3nc(-c4cccc5[nH]ncc45)nc(N4CCOCC4)c3s2)CC1 [Pictilisib] (partner 1 µM)
Outline: as §1

Cell Line	relative viability (BAM7 + Dasatinib; first compound 0.5 µM)	relative viability (BAM7 + Dasatinib; first compound 5 µM)	relative viability (BAM7 + Dasatinib; first compound 15.81 µM)	relative viability (BAM7 + Dasatinib; first compound 50 µM)	relative viability ([1]; first compound 0.01 µM)	relative viability ([1]; first compound 0.03162 µM)	relative viability ([1]; first compound 0.3162 µM)	relative viability ([1]; first compound 1 µM)	relative viability ([2]; first compound 0.01 µM)	relative viability ([2]; first compound 0.03162 µM)	relative viability ([2]; first compound 0.1 µM)	relative viability ([2]; first compound 0.3162 µM)	relative viability ([2]; first compound 1 µM)	relative viability ([3]; first compound 0.01 µM)	relative viability ([3]; first compound 0.03162 µM)	relative viability ([3]; first compound 0.1 µM)	relative viability ([3]; first compound 0.3162 µM)	relative viability ([3]; first compound 1 µM)	relative viability ([1]; first compound 0.1 µM)
NCI-H1793	0.375	0.424	0.431	0.388	0.388	0.393	0.401	0.436	0.733	0.614	0.632	0.55	0.554	0.282	0.322	0.378	0.346	0.317	–
NCI-H1734	0.503	0.59	0.491	0.53	0.705	0.664	0.584	0.679	0.765	0.841	0.801	0.748	0.799	0.456	0.466	0.403	0.423	0.461	0.678
LXF-289	0.276	0.235	0.256	0.253	0.686	0.66	0.609	0.668	0.983	1.05	0.979	0.952	0.955	0.765	0.798	0.715	0.723	0.793	0.703
H3255	0.397	0.34	0.483	0.788	0.608	0.614	0.427	0.532	0.833	0.826	0.891	0.875	0.777	0.457	0.526	0.421	0.465	0.486	0.576
201T	0.659	0.56	0.461	0.497	0.707	0.705	0.722	0.749	1.14	–	1.14	1.09	0.995	0.722	0.667	0.701	0.644	0.723	0.763
NCI-H2126	0.584	0.484	0.436	0.526	0.568	0.566	0.578	0.61	1.1	1.16	1.25	1.11	1.2	0.548	0.496	0.494	0.442	0.449	0.65

Source: the supplement of paper PMC10307832
